Results published in patent publication US20250073184A1, “CANNABIGEROQUINONE COMPOUNDS, COMPOSITIONS INCLUDING SUCH COMPOUNDS, AND USES OF SUCH COMPOUNDS AND COMPOSITIONS” (Juva Life, Inc., priority 2021, published 2025).

Columns and labels:
[1] = system: SK-MEL-28 melanoma cell line; experiment: SK-MEL-28 cell line toxicity (Cell titer Glo viability); format: cell-based; conditions: SK-MEL-28, 72 h
Experimental: (§1) Culture medium were purchased from ATCC, USA.
• General cell culture reagents and plastic. • 384-Well Flat white Poly-styrene TC-Treated Microplates (Corning). • 384 well poly-propylene plates (acoustic grade, Labcyte) for compound dilution. • Cell titer Glo luminescent Cell Viability reagent (Cat #G7571, Promega).
(§2) 90 nL DMSO is added to control wells. […] Luminescence was then recorded using Synergy Neo2Multi-mode Reader.

[2] = molecular target: T1, cannabinoid receptor 1 (CNR1) (Homo sapiens, UniProt P21554); experiment: CB1 receptor agonist assay (cAMP Hunter eXpress, CNR1 CHO-K1 cells); format: cell-based; conditions: agonist mode, Forskolin-stimulated cAMP
T1 construct: host or cells: CHO-K1
Experimental: The assays were performed in cAMP Hunter eXpress cells engineered to overexpress naturally Gi/Go-coupled wildtype cannabinoid receptor 1 (CNR1) or cannabinoid receptor 2 (CNR2) in CHO-K1 cell type. In these cells, CB1 and/or […] agonists inhibit production of intracellular cAMP in response to stimulation with Forskolin. cAMP levels are determined using luminogenic detection reagents provided with the Hunter eXpress cAMP detection kit.
• Assay ready CNR1 CHO-K1 cells were obtained from Eurofins/Discover X, cat #95-0071E2 • Assay ready CNR2 CHO-K1 cells were obtained from Eurofins/Discover X, cat #95-0183E2 • Hunter eXpress cAMP detection kit was also from Discover X. The kit includes all cAMP detection reagents, Forskolin, complete cell plating medium and cell assay buffer.
The Assay-Ready CNR1 CHO-K1 or CNR2 CHO-K1 cells were thawed and re-suspended in pre-warmed Assay Complete plating medium and inoculated into 96 well plate at a density of 30,000 cells in 100 μL. The plates with cells were incubated for 24 h at 37° C. in 5% CO2. […] The cells were stimulated with the Forskolin/compound buffer for 30 min. […] The plate was read on Biotek Synergy Neo2 reader in luminescent mode. […] Relative luminescence units (RLUs) were plotted against compound concentration to determine apparent EC50 values of the agonist compounds.

[3] = system: PC3 prostate adenocarcenoma cell line; experiment: PC3 cell line toxicity (Cell titer Glo viability); format: cell-based; conditions: PC3, 72 h
Experimental: as §2, §1

[4] = system: HL-60 acute promyelocytic leukemia cell line; experiment: HL-60 cell line toxicity (Cell titer Glo viability); conditions: HL-60, 72 h
Experimental: The half maximal inhibition concentration (IC50) for each compound was determined by harvesting cells during the logarithmic growth period and then counting cell number using hemocytometer. […] Then, using a Biomek FX, test articles were serially diluted (10 mM top, 3× dilution intervals) along with a reference inhibitor (1 mM top, 3× dilution intervals) in acoustic grade Labcyte plate. Then, using an acoustic dispenser (Labcyte550), compounds were added as serially diluted to plate with cells: 90 nL of serially diluted compounds per well. 90 nL DMSO is added to control wells. Test plates were incubated for 72 h in the humidified incubator at 37° C. with 5% CO2. 25 μL of reconstituted Cell titer Glo reagent was added to each well. Each test plate was then incubated for 20 min at room temperature. Luminescence was then recorded using Synergy Neo2Multi-mode Reader.
In order to calculate intersect IC50, a dose-response curve was fitted using nonlinear regression model with a sigmoidal dose response.
The formula for calculating surviving rate is shown below, and the intersect IC50 was calculated according to the dose-response curve generated by the software:
The compounds of interest were assessed cell viability in the HL-60 acute promyelocytic leukemia cell line (ATCC® CCL-240). […] Culture medium were purchased from ATCC, USA.

T1 sequence (P21554 whole entry): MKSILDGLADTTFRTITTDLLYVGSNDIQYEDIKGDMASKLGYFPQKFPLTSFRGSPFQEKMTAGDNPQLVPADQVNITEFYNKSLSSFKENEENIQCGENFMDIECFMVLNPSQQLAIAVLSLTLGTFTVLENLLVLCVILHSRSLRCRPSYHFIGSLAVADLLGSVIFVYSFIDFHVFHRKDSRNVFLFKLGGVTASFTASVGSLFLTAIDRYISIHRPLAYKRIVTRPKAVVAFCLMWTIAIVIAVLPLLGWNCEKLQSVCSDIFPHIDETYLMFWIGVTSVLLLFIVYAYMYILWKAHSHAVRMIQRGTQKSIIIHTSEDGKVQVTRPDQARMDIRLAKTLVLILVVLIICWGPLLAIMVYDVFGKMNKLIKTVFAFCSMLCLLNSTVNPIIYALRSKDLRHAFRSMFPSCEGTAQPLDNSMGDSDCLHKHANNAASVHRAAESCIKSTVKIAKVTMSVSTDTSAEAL

Cannabigerol Quinone [Formula VI]
EC50 [1]: > 30 µM | higher tolerance of SK-MEL-28 cells to the compound than staurosporine [1]: more than 250 fold | Cell Viability (%) ([1]; 0.00017 uM): 100.0% | Cell Viability (%) ([1]; 0.00051 uM): 97.2% | Cell Viability (%) ([1]; 0.0015 uM): 96.2% | Cell Viability (%) ([1]; 0.0046 uM): 101.0% | Cell Viability (%) ([1]; 0.014 uM): 98.5% | Cell Viability (%) ([1]; 0.041 uM): 99.9% | Cell Viability (%) ([1]; 0.12 uM): 100.0% | Cell Viability (%) ([1]; 0.37 uM): 101.0% | Cell Viability (%) ([1]; 1.1 uM): 99.9% | Cell Viability (%) ([1]; 3.3 uM): 104.0% | Cell Viability (%) ([1]; 10 uM): 99.0% | Cell Viability (%) ([1]; 30 uM): 83.2% | IC50 [2]: > 3 µM | EC50 [3]: > 30 µM | higher tolerance of PC3 cells to the compound than staurosporine [3]: more than 10,000 fold | Cell Viability (%) ([3]; 0.00017 uM): 97.4% | Cell Viability (%) ([3]; 0.00051 uM): 100.9% | Cell Viability (%) ([3]; 0.0015 uM): 96.0% | Cell Viability (%) ([3]; 0.0046 uM): 96.9% | Cell Viability (%) ([3]; 0.014 uM): 96.5% | Cell Viability (%) ([3]; 0.041 uM): 95.9% | Cell Viability (%) ([3]; 0.12 uM): 96.0% | Cell Viability (%) ([3]; 0.37 uM): 97.7% | Cell Viability (%) ([3]; 1.1 uM): 94.0% | Cell Viability (%) ([3]; 3.3 uM): 94.6% | Cell Viability (%) ([3]; 10 uM): 91.2% | Cell Viability (%) ([3]; 30 uM): 84.5% | higher tolerance of HL-60 cells to the compound than staurosporine [4]: more than 1,500 fold | Cell Viability (%) ([4]; 0.00017 uM): 102.3% | Cell Viability (%) ([4]; 0.00051 uM): 113.4% | Cell Viability (%) ([4]; 0.0015 uM): 91.6% | Cell Viability (%) ([4]; 0.0046 uM): 94.0% | Cell Viability (%) ([4]; 0.014 uM): 94.1% | Cell Viability (%) ([4]; 0.041 uM): 83.6% | Cell Viability (%) ([4]; 0.12 uM): 85.1% | Cell Viability (%) ([4]; 0.37 uM): 91.3% | Cell Viability (%) ([4]; 1.1 uM): 91.3% | Cell Viability (%) ([4]; 3.3 uM): 97.8% | Cell Viability (%) ([4]; 10 uM): 81.9% | Cell Viability (%) ([4]; 30 uM): 61.5% | EC50 ([4]; read-out: EC50 (cell viability)): > 30 µM
